Assay results from patent US7838288B2, “Modulators of odorant receptors” (Duke University, priority 2004, dated 2010).
“Also recorded” adds a separate entry of the source. Values belong to the compound of their own block, whether it stands above or below them.

Tests used:
[1] = tested on: olfactory neurons S6 and S79; details: previous studies (Malnic 1999); cited from earlier work
OR-S6/S79 = experiment: CRE-luciferase reporter gene assay, OR-S6/S79; assay type: cell-based, mouse; details: Hana3A cells
Protocol: Four ORs (S6/79, S18, S46 and S50) previously assayed using other techniques (see, e.g., Malnic, B., et al. (1999) Cell 96, 713-723; herein incorporated by reference in its entirety) were tested against an assay panel of aliphatic alcohols, aldehydes and acids and some other odorants. Additionally, five “orphan” class I ORs (MOR23-1, MOR31-4, MOR31-6, MOR32-5 and MOR32-11) whose cognate ligands were unknown were tested. At a suprathreshold concentration of 100 uM, all these ORs were odorant selective, responding to only a small subset of the odorants tested (see FIG. 11A). This specificity was retained at lower, more physiologically relevant concentrations. Many of these ORs responded to odorants present in micromolar concentrations. The cell-surface expression of these ORs by living-cell immunofluorescence were evaluated. Some ORs (S18, MOR31-4, MOR31-6 and MOR32-5) were strongly expressed while other ORs (S6, S50, MOR23-1, MOR32-11) were weakly expressed (see FIG. 12). The present invention is not limited to a particular mechanism. Indeed, an understanding of the mechanism is not necessary to practice the present invention. […] Finally, two additional orphan class II ORs, MOR203-1 and olfr62, were tested against a panel of 139 odorants. […] Olfr62 responded to coumarine and piperonal (see FIG. 11C). […] When parental 293T cells for these ORs were used in this luciferase assay, little or no response to the odorants was observed. The present invention is not limited to a particular mechanism. Indeed, an understanding of the mechanism is not necessary to practice the present invention.
An expression system has been established that permits rapid identification of ligands for ORs. This system was tested with twelve ORs. Four of the tested ORs (S6/S79, S18, S46, and S50) were expressed in single olfactory neurons responding to aliphatic odorants (see, e.g., Malnic, B., et al. (1999) Cell 96, 713-723; herein incorporated by reference in its entirety). The response profiles of OR-S50, but not that of OR-S18 agreed with the previous report (see, e.g., Malnic, B., et al. (1999) Cell 96, 713-723; herein incorporated by reference in its entirety). […] In experiments conducted during the course of the present invention, OR-S6/S79 responded to nonanedioic acid but not to heptanoic acid or octanoic acid. The present invention is not limited to a particular mechanism. […] When multiple single olfactory neurons that expressed the same OR were recorded against the same set of odorants using calcium imaging, their response profiles were similar but different (see, e.g., Bozza, T., et al. (2002) J Neurosci 22, 3033-3043; herein incorporated by reference in its entirety).
(§1) Dual-Glo system (Promega) for luciferase assay was used. […] Luminescence was measured using Wallac Victor 1420 (Perkin-Elmer). […]

MOR31-4 = experiment: CRE-luciferase reporter gene assay, MOR31-4; assay type: cell-based, mouse; details: Hana3A cells
Protocol: (§2) Four ORs (S6/79, S18, S46 and S50) previously assayed using other techniques (see, e.g., Malnic, B., et al. (1999) Cell 96, 713-723; herein incorporated by reference in its entirety) were tested against an assay panel of aliphatic alcohols, aldehydes and acids and some other odorants. Additionally, five “orphan” class I ORs (MOR23-1, MOR31-4, MOR31-6, MOR32-5 and MOR32-11) whose cognate ligands were unknown were tested. At a suprathreshold concentration of 100 uM, all these ORs were odorant selective, responding to only a small subset of the odorants tested (see FIG. 11A). This specificity was retained at lower, more physiologically relevant concentrations. Many of these ORs responded to odorants present in micromolar concentrations. The cell-surface expression of these ORs by living-cell immunofluorescence were evaluated. Some ORs (S18, MOR31-4, MOR31-6 and MOR32-5) were strongly expressed while other ORs (S6, S50, MOR23-1, MOR32-11) were weakly expressed (see FIG. 12). […]
(§3) Dual-Glo system (Promega) for luciferase assay was used. […] Luminescence was measured using Wallac Victor 1420 (Perkin-Elmer). Normalized luciferase activity was calculated as [Luc (N)-Luc (0)]/RL (N), where Luc (N)=Luminescent count of a certain well, Luc (0)=Luminescent count without odorant for each OR, and RL (N)=Luminescent count of Renilla Luciferase of each well. […]

OR-S46 = experiment: CRE-luciferase reporter gene assay, OR-S46; assay type: cell-based, mouse; details: Hana3A cells
From the text: To facilitate analysis of odorant-OR interactions, 293T cell lines were established which stably express REEP1, RTP1, RTP2 and Gαolf, the G protein alpha subunit that couples to OR (see, e.g., Belluscio, L., et al. (1998) Neuron 20, 69-81; Jones, D. T., and Reed, R. R. (1989). Science 244, 790-795; each herein incorporated by reference in their entireties). To establish such cells, linearized expression vectors containing mouse REEP1, RTP1, RTP2 and Gαolf ORFs were transfected into 293T cells with PGK-Pac (puromycin resistant gene) (see, e.g., Watanabe, S., et al. (1995) Biochem Biophys Res Commun 213, 130-137; herein incorporated by reference in its entirety). […] Enhanced cell-surface expression was observed when OREG or other ORs were transfected in Hana3A cells and immunostained (see FIG. 10). […]
Four ORs (S6/79, S18, S46 and S50) previously assayed using other techniques (see, e.g., Malnic, B., et al. (1999) Cell 96, 713-723; herein incorporated by reference in its entirety) were tested against an assay panel of aliphatic alcohols, aldehydes and acids and some other odorants. […] The cell-surface expression of these ORs by living-cell immunofluorescence were evaluated. […]
as §1

MOR23-1 = experiment: CRE-luciferase reporter gene assay, MOR23-1; assay type: cell-based, mouse; details: Hana3A cells
Protocol: as §2, §3

MOR203-1 = experiment: CRE-luciferase reporter gene assay, MOR203-1; assay type: cell-based, mouse; details: Hana3A cells
Protocol: as §2, §3

OREG = biological target: T1, OREG (Mus musculus, UniProt Q920P2); experiment: cAMP assay, OREG; assay type: cell-based; details: OREG transfected; Hana3A cells vs 293T cells expressing Gαolf
T1 construct: expressed in transfected cells; host or cells: Hana3A cells, or HEK293T cells co-transfected with Golf
T1 sequence (Q920P2 1-313): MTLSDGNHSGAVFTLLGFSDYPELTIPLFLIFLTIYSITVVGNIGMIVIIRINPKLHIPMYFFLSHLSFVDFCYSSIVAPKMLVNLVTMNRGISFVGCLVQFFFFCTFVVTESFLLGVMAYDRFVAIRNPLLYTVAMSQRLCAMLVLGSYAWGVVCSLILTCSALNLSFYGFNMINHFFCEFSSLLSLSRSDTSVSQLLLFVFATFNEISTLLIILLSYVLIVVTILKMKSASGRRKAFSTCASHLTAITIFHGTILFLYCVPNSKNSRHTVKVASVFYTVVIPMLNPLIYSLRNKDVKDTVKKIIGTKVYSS
Protocol: In order to confirm the increased OR function in the presence of REEP1, RTP1 and RTP2, the amount of cAMP upon ligand stimulation was measured using 293T cells expressing Gαolf and Hana3A cells. […] In contrast, when the β2 adrenergic receptor was expressed and isoproterenol was used, no significant differences in cAMP production were observed (see FIG. 8E). The present invention is not limited to a particular mechanism. Indeed, an understanding of the mechanism is not necessary to practice the present invention. Nonetheless, this further supports a specific role of the accessory proteins in functional OR expression.
Dual-Glo system (Promega) for luciferase assay was used. CRE-Luciferase (Stratagene) was used to measure the receptor activities. Renilla luciferase driven by constitutively active SV40 promoter (pRL-SV40: Promega) was used as an internal control. Cells were plated on poly-D-lysine coated 96 well plates (BIOCOAT, Beckton Dickinson). […] Luminescence was measured using Wallac Victor 1420 (Perkin-Elmer). Normalized luciferase activity was calculated as [Luc (N)-Luc (0)]/RL (N), where Luc (N)=Luminescent count of a certain well, Luc (0)=Luminescent count without odorant for each OR, and RL (N)=Luminescent count of Renilla Luciferase of each well. […]

[2] = biological target: T2, mouse odorant receptor OREG (Mus musculus, UniProt Q920P2); experiment: CRE-luciferase reporter gene assay, OREG; assay type: cell-based
T2 construct: expressed in transfected cells; host or cells: 293T cells (with or without co-transfected REEP1/RTP1/RTP2) and Hana3A cells (293T stably expressing mouse REEP1, RTP1, RTP2, Galpha-olf)
T2 sequence (Q920P2 1-313): T1 sequence (Q920P2 1-313)
From the text: Poor odorant evoked signaling activity in heterologous cell culture systems expressing ORs has been attributed to the poor cell surface expression of ORs. The identification of REEP and/or RTP allowed a direct assessment of this issue. A luciferase reporter gene assay was employed in which a cAMP responsive element (CRE) mediated luciferase gene expression (see FIG. 8A). Because OR activation leads to an increase in cAMP, activation of the mouse odorant receptor OREG by its ligand eugenol was measured in the presence and absence of REEP and/or RTP (see, e.g., Kajiya, K., et al. (2001) J Neurosci 21, 6018-6025; Touhara, K., et al., (1999) Proc Natl Acad Sci USA 96, 4040-4045; each herein incorporated by reference in their entireties). As reported previously, eugenol increased levels of OREG dependent luciferase activity (see, e.g., Katada, S., et al. (2003) Biochem Biophys Res Commun 305, 964-969; herein incorporated by reference in its entirety).
(§4) To facilitate analysis of odorant-OR interactions, 293T cell lines were established which stably express REEP1, RTP1, RTP2 and Gαolf, the G protein alpha subunit that couples to OR (see, e.g., Belluscio, L., et al. (1998) Neuron 20, 69-81; Jones, D. T., and Reed, R. R. (1989). Science 244, 790-795; each herein incorporated by reference in their entireties). To establish such cells, linearized expression vectors containing mouse REEP1, RTP1, RTP2 and Gαolf ORFs were transfected into 293T cells with PGK-Pac (puromycin resistant gene) (see, e.g., Watanabe, S., et al. (1995) Biochem Biophys Res Commun 213, 130-137; herein incorporated by reference in its entirety). […] Enhanced cell-surface expression was observed when OREG or other ORs were transfected in Hana3A cells and immunostained (see FIG. 10). […] Expression of Gαolf alone in 293T cells had little or no effect on OR activation using this assay.
Dual-Glo system (Promega) for luciferase assay was used. CRE-Luciferase (Stratagene) was used to measure the receptor activities. Renilla luciferase driven by constitutively active SV40 promoter (pRL-SV40: Promega) was used as an internal control. Cells were plated on poly-D-lysine coated 96 well plates (BIOCOAT, Beckton Dickinson). After 8 hours (for experiments shown in FIGS. 8B and 8C) or 12 hours (for experiments shown in FIG. 8D and FIG. 11) after transfection, the medium was replaced with CD293 chemically defined medium (Invitrogen) and the plates were incubated for one hour at 37 degrees C. The medium was replaced with 50 ul of odorant solutions dissolved in CD293 and incubated for 10 hours (for experiments shown in FIGS. 8B and 8C) or 4 hours (for experiments shown in FIG. 8D and FIG. 11) at 37 degrees C. The manufacture's protocol for measuring luciferase and Renilla luciferase activities was followed. Luminescence was measured using Wallac Victor 1420 (Perkin-Elmer). Normalized luciferase activity was calculated as [Luc (N)-Luc (0)]/RL (N), where Luc (N)=Luminescent count of a certain well, Luc (0)=Luminescent count without odorant for each OR, and RL (N)=Luminescent count of Renilla Luciferase of each well. For cAMP assays, cells were plated onto 24-well plate. […]. Prism software (Graphpad) was used for data analysis.

OR-S50 = experiment: CRE-luciferase reporter gene assay, OR-S50; assay type: cell-based, mouse
From the text: as §4
as §3, with “used. CRE-Luciferase (Stratagene) was used to measure the receptor activities.” for “used.”

Compound: C=CCc1ccc(O)c(OC)c1 [eugenol, reference compound]
- cAMP production (OREG): Enhanced cAMP production; also recorded: more cAMP was produced
- luciferase induction ([2]; HA-OREG in 293T cells): Little luciferase induction was observed
- luciferase activity ([2]; HA-OREG in Hana3A cells): an enhancement in luciferase activity was observed
- OREG dependent luciferase activity ([2]; odorant applied, OREG in 293T cells with or without REEP and/or RTP): increased

Compound: O=C(O)CCCCCCCC(=O)O [nonanedioic acid]
- luciferase response (OR-S50; OR-S50 in 293T cells): did not produce a luciferase response
- luciferase activity (OR-S50; OR-S50 in Hana3A cells): robust luciferase activity
- response of single olfactory neurons S6 and S79 to odorant [1]: both responded
- response of OR-S6/S79 to odorant (luciferase) (OR-S6/S79): responded

The next lines start with results.

- response of OR-S6/S79 to odorant (luciferase) (OR-S6/S79): not
Compound: CCCCCCCC(=O)O [octanoic acid]
- response of single olfactory neurons S6 and S79 to odorant [1]: only the olfactory neuron S79 responded

- response of MOR31-4 to odorant (luciferase) (MOR31-4): responded
- response of S46 to odorant (luciferase) (OR-S46): responded
- response of MOR23-1 to odorant (luciferase) (MOR23-1): responded
- response of MOR203-1 to odorant (luciferase) (MOR203-1): responded to high concentrations
Compound: CCCCCCCCC(=O)O [nonanoic acid, Nonanoic acid]

- response of OR-S6/S79 to odorant (luciferase) (OR-S6/S79): not
Compound: CCCCCCC(=O)O [heptanoic acid, Heptanoic acid]
- response of single olfactory neurons S6 and S79 to odorant [1]: only the olfactory neuron S79 responded
